Reference: publication PMC5509055 (Prostaglandins & other lipid mediators, 2017)
Counter-ions that a name gives are not always drawn.

Columns and labels:
[1] = target: sphingosine kinase 1 (SK1) (Homo sapiens, UniProt Q9NYA1); test: fluorescent NBD-sphingosine kinase assay with recombinant human SK1; assay type: biochemical
[2] = target: T1, sphingosine kinase 2 (SK2) (Homo sapiens, UniProt Q9NRA0); test: fluorescent NBD-sphingosine kinase assay with recombinant human SK2; assay type: biochemical
T1 sequence (Q9NRA0 1-654): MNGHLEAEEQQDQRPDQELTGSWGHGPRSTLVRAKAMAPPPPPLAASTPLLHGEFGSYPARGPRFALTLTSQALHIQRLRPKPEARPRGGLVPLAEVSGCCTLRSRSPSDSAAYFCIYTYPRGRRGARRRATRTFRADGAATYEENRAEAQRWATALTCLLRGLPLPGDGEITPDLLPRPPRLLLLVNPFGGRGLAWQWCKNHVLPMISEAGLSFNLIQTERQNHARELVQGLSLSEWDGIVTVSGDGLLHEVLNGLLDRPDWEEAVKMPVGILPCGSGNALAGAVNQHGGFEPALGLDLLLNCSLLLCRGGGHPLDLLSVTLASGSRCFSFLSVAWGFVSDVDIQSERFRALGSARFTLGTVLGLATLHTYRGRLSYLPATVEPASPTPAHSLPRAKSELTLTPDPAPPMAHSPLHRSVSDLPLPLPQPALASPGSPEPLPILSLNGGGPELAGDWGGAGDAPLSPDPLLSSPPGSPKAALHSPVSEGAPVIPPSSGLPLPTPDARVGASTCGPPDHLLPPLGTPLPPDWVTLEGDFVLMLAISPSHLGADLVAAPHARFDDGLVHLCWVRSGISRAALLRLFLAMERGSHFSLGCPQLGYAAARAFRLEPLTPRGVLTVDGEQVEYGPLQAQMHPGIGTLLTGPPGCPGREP

sphingosine kinase 1 (SK1), sequence (Q9NYA1 whole entry): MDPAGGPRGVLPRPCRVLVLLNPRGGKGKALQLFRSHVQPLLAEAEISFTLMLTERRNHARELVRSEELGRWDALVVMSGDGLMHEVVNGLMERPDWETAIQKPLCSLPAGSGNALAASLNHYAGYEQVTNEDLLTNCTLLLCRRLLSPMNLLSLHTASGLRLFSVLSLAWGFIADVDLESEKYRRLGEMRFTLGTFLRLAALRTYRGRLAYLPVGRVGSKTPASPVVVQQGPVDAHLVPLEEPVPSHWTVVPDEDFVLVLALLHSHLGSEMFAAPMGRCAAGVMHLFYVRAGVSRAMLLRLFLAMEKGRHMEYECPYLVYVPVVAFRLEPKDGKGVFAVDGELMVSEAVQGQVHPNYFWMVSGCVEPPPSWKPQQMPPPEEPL

IC50 [1]: ~5.5 µM
IC50 [2]: ~57 µM
Compound: CCCCCCCCCCCCC/C=C/[C@H](O)[C@@H](CO)NC(=N)N [LCL351, L-erythro-2-N-(1′-carboxamidino)-sphingosine hydrochloride]
